Patent publication US20240109917A1 (ACTELION PHARMACEUTICALS LTD, priority 2020, published 2024)

Tests used:
VEGFR2, unphosphorylated = VEGFR2, unphosphorylated (Homo sapiens (Human), UniProt P35968); assay: VEGFR ADP GLO Assay; type: biochemical
[1] = target: His6-TEV-PDGFRβ (557-1016) (Homo sapiens (Human), UniProt P09619); assay: PDGFRβ HTRF Assay; type: biochemical; conditions: read-out: PDGFR HTRF IC50
Summary of the method: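 Human PDGFRβ (557-1016) pre-incubated with compound for 30 min at RT in pH 7.5 HEPES/MgCl2/EGTA/Brij-35/DTT buffer. Reaction started with ATP and TK-biotin peptide, run 3 h at RT, then quenched with EDTA-containing Eu-cryptate antibody/streptavidin-XL665. HTRF 665/620 nm ratio read after 60 min; percent inhibition relative to DMSO and 10 μM imatinib controls.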

[2] = target: Tb-labeled inactive PDGFRβ (Homo sapiens (Human), UniProt P09619); assay: PDGFRβ LanthaScreen Assay; type: binding; conditions: read-out: PDGFR Lantha IC50
Sequence of Tb-labeled inactive PDGFRβ (P09619 33-1106): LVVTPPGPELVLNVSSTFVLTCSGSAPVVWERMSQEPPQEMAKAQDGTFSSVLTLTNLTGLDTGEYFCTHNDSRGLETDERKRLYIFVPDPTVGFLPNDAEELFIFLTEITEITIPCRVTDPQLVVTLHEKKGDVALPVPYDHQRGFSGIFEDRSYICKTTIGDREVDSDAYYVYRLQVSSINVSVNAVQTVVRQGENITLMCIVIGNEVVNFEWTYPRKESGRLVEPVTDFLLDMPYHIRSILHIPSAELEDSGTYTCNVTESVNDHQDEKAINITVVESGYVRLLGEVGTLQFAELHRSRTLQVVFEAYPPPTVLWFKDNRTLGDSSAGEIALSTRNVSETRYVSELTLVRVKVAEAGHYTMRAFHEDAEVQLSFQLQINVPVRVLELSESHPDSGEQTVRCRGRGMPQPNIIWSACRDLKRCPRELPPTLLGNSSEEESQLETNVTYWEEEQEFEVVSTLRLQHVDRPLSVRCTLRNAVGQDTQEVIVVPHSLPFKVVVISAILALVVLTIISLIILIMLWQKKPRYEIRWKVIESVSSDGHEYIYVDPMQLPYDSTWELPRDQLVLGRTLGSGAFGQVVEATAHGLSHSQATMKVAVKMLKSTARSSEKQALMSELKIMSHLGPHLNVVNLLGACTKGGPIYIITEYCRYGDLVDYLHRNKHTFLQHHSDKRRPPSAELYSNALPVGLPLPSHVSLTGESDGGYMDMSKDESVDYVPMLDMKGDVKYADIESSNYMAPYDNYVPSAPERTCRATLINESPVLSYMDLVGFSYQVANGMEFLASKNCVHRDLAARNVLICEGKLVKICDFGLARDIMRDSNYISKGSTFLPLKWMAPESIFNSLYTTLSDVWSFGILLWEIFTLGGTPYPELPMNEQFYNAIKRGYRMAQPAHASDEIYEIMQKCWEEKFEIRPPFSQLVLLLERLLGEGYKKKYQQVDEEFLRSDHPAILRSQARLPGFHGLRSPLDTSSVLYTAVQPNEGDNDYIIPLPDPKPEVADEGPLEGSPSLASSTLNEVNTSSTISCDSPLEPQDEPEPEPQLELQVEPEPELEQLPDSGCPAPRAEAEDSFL

Sequence of VEGFR2, unphosphorylated (P35968 20-1356): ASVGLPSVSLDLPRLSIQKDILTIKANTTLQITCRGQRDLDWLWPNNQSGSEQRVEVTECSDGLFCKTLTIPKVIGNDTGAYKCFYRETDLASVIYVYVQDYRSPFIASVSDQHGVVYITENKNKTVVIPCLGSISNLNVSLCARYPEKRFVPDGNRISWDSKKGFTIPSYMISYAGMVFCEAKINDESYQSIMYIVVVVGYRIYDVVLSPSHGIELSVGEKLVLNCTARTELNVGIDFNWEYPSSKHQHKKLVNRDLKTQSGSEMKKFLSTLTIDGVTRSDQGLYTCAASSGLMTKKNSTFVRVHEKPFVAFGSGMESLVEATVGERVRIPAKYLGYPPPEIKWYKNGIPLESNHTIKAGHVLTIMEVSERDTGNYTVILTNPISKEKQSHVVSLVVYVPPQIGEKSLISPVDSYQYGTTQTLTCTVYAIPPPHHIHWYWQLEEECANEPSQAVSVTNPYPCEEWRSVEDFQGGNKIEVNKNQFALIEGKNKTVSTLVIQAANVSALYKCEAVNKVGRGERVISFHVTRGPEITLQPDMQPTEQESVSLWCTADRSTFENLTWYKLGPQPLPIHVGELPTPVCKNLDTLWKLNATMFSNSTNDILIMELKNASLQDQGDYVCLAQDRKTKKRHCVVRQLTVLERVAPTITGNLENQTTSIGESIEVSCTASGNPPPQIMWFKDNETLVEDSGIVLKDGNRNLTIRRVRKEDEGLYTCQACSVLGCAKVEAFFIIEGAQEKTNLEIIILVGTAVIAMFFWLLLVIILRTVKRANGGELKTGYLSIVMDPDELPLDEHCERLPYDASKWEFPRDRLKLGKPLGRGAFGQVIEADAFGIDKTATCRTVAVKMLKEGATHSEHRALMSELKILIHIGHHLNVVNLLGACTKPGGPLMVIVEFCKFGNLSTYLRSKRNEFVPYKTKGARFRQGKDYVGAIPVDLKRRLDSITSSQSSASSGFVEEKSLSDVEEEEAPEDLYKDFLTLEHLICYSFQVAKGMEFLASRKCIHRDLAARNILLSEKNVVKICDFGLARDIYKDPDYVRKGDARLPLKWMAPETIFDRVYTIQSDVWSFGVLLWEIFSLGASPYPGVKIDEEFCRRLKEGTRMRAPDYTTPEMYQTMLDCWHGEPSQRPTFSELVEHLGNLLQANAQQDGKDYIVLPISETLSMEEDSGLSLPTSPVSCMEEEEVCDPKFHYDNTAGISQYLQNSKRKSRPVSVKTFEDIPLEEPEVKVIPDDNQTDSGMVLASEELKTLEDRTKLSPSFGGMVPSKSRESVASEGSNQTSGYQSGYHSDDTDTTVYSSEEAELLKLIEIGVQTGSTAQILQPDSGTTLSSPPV
Sequence of His6-TEV-PDGFRβ (557-1016) (P09619 557-1016): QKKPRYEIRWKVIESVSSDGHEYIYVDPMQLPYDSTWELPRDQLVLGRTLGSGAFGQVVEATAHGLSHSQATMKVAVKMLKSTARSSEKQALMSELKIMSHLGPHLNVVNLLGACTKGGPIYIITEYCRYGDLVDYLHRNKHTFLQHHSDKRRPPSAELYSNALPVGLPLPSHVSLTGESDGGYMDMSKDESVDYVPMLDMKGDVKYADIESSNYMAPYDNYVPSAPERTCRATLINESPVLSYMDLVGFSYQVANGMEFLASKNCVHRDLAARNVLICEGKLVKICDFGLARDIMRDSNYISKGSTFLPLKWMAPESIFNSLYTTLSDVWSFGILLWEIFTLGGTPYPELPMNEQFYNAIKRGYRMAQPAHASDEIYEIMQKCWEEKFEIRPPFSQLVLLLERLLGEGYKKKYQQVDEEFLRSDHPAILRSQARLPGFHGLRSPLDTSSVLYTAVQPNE

Structure (SMILES)	IC50 (VEGFR2, unphosphorylated)	IC50 [1]	IC50 [2]
Cc1cc(C(=O)NCCN2CCOCC23CC3)sc1NC(=O)c1cnn2cc(-c3cnn(C)c3)sc12 [Example 197, N-(5-((2-(7-oxa-4-azaspiro[2.5]octan-4-yl)ethyl)carbamoyl)-3-methylthiophen-2-yl)-2-(1-methyl-1H-pyrazol-4-yl)pyrazolo[5,1-b]thiazole-7-carboxamide]	> 7500 nM	11.5 nM	51 nM
Cc1cc(C(=O)NCCN2[C@H](C)CCC[C@@H]2C)sc1NC(=O)c1cnn2cc(-c3cnn(C)c3)sc12 [Example 198, N-(5-((2-((2S,6R)-2,6-dimethylpiperidin-1-yl)ethyl)carbamoyl)-3-methylthiophen-2-yl)-2-(1-methyl-1H-pyrazol-4-yl)pyrazolo[5,1-b]thiazole-7-carboxamide]	> 7500 nM	2 nM	111 nM
Cc1cc(C(=O)NCCN2CC3CCC2CC3)sc1NC(=O)c1cnn2cc(-c3cnn(C)c3)sc12 [Example 199, N-(5-((2-(2-azabicyclo[2.2.2]octan-2-yl)ethyl)carbamoyl)-3-methylthiophen-2-yl)-2-(1-methyl-1H-pyrazol-4-yl)pyrazolo[5,1-b]thiazole-7-carboxamide]	> 7500 nM	2 nM	125 nM
Cc1cc(C(=O)NCCN2CCCC(O)C2)sc1NC(=O)c1cnn2cc(-c3cnn(C)c3)sc12 (stereo not drawn) [Example 200, N-(5-((2-(3-hydroxypiperidin-1-yl)ethyl)carbamoyl)-3-methylthiophen-2-yl)-2-(1-methyl-1H-pyrazol-4-yl)pyrazolo[5,1-b]thiazole-7-carboxamide]	> 7500 nM	49 nM	2210 nM
Cc1cc(C(=O)NCCCN2CCCC2(C)C)sc1NC(=O)c1cnn2cc(-c3cnn(C)c3)sc12 [Example 201, N-(5-((3-(2,2-dimethylpyrrolidin-1-yl)propyl)carbamoyl)-3-methylthiophen-2-yl)-2-(1-methyl-1H-pyrazol-4-yl)pyrazolo[5,1-b]thiazole-7-carboxamide]	> 7500 nM	58.5 nM	2450 nM
Cc1cc(C(=O)NCC(C)(C)N2CCCC2)sc1NC(=O)c1cnn2cc(-c3cnn(C)c3)sc12 [Example 202, 2-(1-methyl-1H-pyrazol-4-yl)-N-(3-methyl-5-((2-methyl-2-(pyrrolidin-1-yl)propyl)carbamoyl)thiophen-2-yl)pyrazolo[5,1-b]thiazole-7-carboxamide]	> 7500 nM	1070 nM	> 3000 nM
Cc1cc(C(=O)NCCN2CCC3(CCC3)CC2)sc1NC(=O)c1cnn2cc(-c3cnn(C)c3)sc12 [Example 203, N-(5-((2-(7-azaspiro[3.5]nonan-7-yl)ethyl)carbamoyl)-3-methylthiophen-2-yl)-2-(1-methyl-1H-pyrazol-4-yl)pyrazolo[5,1-b]thiazole-7-carboxamide]	> 7500 nM	25 nM	1060 nM
Cc1cc(C(=O)NCCN2CCc3ccccc3C2)sc1NC(=O)c1cnn2cc(-c3cnn(C)c3)sc12 [Example 204, N-(5-((2-(3,4-dihydroisoquinolin-2 (1H)-yl)ethyl)carbamoyl)-3-methylthiophen-2-yl)-2-(1-methyl-1H-pyrazol-4-yl)pyrazolo[5,1-b]thiazole-7-carboxamide]	> 7500 nM	19.2 nM	420 nM
CCc1cc(C(=O)NCCN2CCCC23CCC3)sc1NC(=O)c1cnn2cc(-c3cnn(C)c3)sc12 [Example 205, N-(5-((2-(5-azaspiro[3.4]octan-5-yl)ethyl)carbamoyl)-3-ethylthiophen-2-yl)-2-(1-methyl-1H-pyrazol-4-yl)pyrazolo[5,1-b]thiazole-7-carboxamide]	> 7500 nM	39.4 nM	107 nM
Cn1cc(-c2cn3ncc(C(=O)Nc4sc(C(=O)NCCN5CCCC56CCC6)cc4C#N)c3s2)cn1 [Example 206, N-(5-((2-(5-azaspiro[3.4]octan-5-yl)ethyl)carbamoyl)-3-cyanothiophen-2-yl)-2-(1-methyl-1H-pyrazol-4-yl)pyrazolo[5,1-b]thiazole-7-carboxamide]	> 2500 nM	3550 nM	> 3000 nM
Cn1cc(-c2cn3ncc(C(=O)Nc4cc(C(=O)NCCN5CCCC5(C)C)ccc4F)c3s2)cn1 [Example 207, N-(5-((2-(2,2-dimethylpyrrolidin-1-yl)ethyl)carbamoyl)-2-fluorophenyl)-2-(1-methyl-1H-pyrazol-4-yl)pyrazolo[5,1-b]thiazole-7-carboxamide]	> 7500 nM	0.3 nM	4.4 nM
Cc1ncc(C(=O)NCCN2C[C@H]3CC[C@@H]2C3)cc1NC(=O)c1cnn2cc(-c3cnn(C)c3C)sc12 [Example 208, N-(5-((2-((1R,4S)-2-azabicyclo[2.2.1]heptan-2-yl)ethyl)carbamoyl)-2-methylpyridin-3-yl)-2-(1,5-dimethyl-1H-pyrazol-4-yl)pyrazolo[5,1-b]thiazole-7-carboxamide]	> 7500 nM	0.3 nM	4.3 nM
Cc1ncc(C(=O)NCCN2CCCC23CCC3)cc1NC(=O)c1cnn2cc(-c3cnn(C)c3C)sc12 [Example 209, N-(5-((2-(5-azaspiro[3.4]octan-5-yl)ethyl)carbamoyl)-2-methyl-pyridin-3-yl)-2-(1,5-dimethyl-1H-pyrazol-4-yl)pyrazolo[5,1-b]thiazole-7-carboxamide]	> 7500 nM	0.3 nM	2.2 nM
Cc1ncc(C(=O)NCCN2CC3CCC2C3)cc1NC(=O)c1cnn2cc(-c3cnn(C)c3C)sc12 (stereo not drawn) [Example 210, N-(5-((2-(2-azabicyclo[2.2.1]heptan-2-yl)ethyl)carbamoyl)-2-methylpyridin-3-yl)-2-(1,5-dimethyl-1H-pyrazol-4-yl)pyrazolo[5,1-b]thiazole-7-carboxamide]	> 7500 nM	0.3 nM	2.6 nM
Cc1ncc(C(=O)NCCN2C[C@H]3CC[C@@H]2C3)cc1NC(=O)c1cnn2cc(-c3cn(C)nc3C)sc12 [Example 211, N-(5-((2-((1R,4S)-2-azabicyclo[2.2.1]heptan-2-yl)ethyl)carbamoyl)-2-methylpyridin-3-yl)-2-(1,3-dimethyl-1H-pyrazol-4-yl)pyrazolo[5,1-b]thiazole-7-carboxamide]	> 7500 nM	0.3 nM	2.4 nM
Cc1ncc(C(=O)NCCN2CC3CCC2C3)cc1NC(=O)c1cnn2cc(-c3cn(C)nc3C)sc12 (stereo not drawn) [Example 212, N-(5-((2-(2-azabicyclo[2.2.1]heptan-2-yl)ethyl)carbamoyl)-2-methylpyridin-3-yl)-2-(1,3-dimethyl-1H-pyrazol-4-yl)pyrazolo[5,1-b]thiazole-7-carboxamide]	> 7500 nM	0.3 nM	1.3 nM
Cc1ncc(C(=O)NCCN2CCCC23CCC3)cc1NC(=O)c1cnn2cc(-c3cn(C)nc3C)sc12 [Example 213, N-(5-((2-(5-azaspiro[3.4]octan-5-yl)ethyl)carbamoyl)-2-methylpyridin-3-yl)-2-(1,3-dimethyl-1H-pyrazol-4-yl)pyrazolo[5,1-b]thiazole-7-carboxamide]	> 7500 nM	0.3 nM	1.9 nM
Cc1ncc(C(=O)NCCN2CCCC23CCC3)cc1NC(=O)c1cnn2cc(-c3c(C)nn(C)c3C)sc12 [Example 214, N-(5-((2-(5-azaspiro[3.4]octan-5-yl)ethyl)carbamoyl)-2-methylpyridin-3-yl)-2-(1,3,5-trimethyl-1H-pyrazol-4-yl)pyrazolo[5,1-b]thiazole-7-carboxamide]	> 7500 nM	0.3 nM	1.8 nM
Cc1ncc(NC(=O)CCCN2CCC23CCC3)cc1NC(=O)c1cnn2cc(-c3cnn(C)c3)sc12 [Example 215, N-(5-(4-(1-azaspiro[3.3]heptan-1-yl)butanamido)-2-methylpyridin-3-yl)-2-(1-methyl-1H-pyrazol-4-yl)pyrazolo[5,1-b]thiazole-7-carboxamide]	> 7500 nM	0.5 nM	16.8 nM
COCCn1cc(-c2cn3ncc(C(=O)Nc4cc(NC(=O)CCCN5CCC[C@@H]5C)cnc4C)c3s2)cn1 [Example 216, (S)-2-(1-(2-methoxyethyl)-1H-pyrazol-4-yl)-N-(2-methyl-5-(4-(2-methylpyrrolidin-1-yl)butanamido)pyridin-3-yl)pyrazolo[5,1-b]thiazole-7-carboxamide]	> 7500 nM	1.5 nM	47.8 nM
Cc1ncc(C(=O)NCCN2CCCC2(C)C)cc1NC(=O)c1cnn2cc(-n3ncc4cccnc43)sc12 [Example 217, N-(5-((2-(2,2-dimethylpyrrolidin-1-yl)ethyl)carbamoyl)-2-methylpyridin-3-yl)-2-(1H-pyrazolo[3,4-b]pyridin-1-yl)pyrazolo[5,1-b]thiazole-7-carboxamide]	> 7500 nM	0.4 nM	2.5 nM
Cc1ncc(C(=O)NCCN2CCCC2)cc1NC(=O)c1cnn2cc(-c3cn(C)nc3C)sc12 [Example 218, 2-(1,3-Dimethyl-1H-pyrazol-4-yl)-N-(2-methyl-5-((2-(pyrrolidin-1-yl)ethyl)carbamoyl)pyridin-3-yl)pyrazolo[5,1-b]thiazole-7-carboxamide]	> 7500 nM	0.3 nM	3.6 nM
Cc1ncc(C(=O)NCCN2CCCC2)cc1NC(=O)c1cnn2cc(-c3cnn(C)c3)sc12 [Example 219, 2-(1-Methyl-1H-pyrazol-4-yl)-N-(2-methyl-5-((2-(pyrrolidin-1-yl)ethyl)carbamoyl)pyridin-3-yl)pyrazolo[5,1-b]thiazole-7-carboxamide]	> 7500 nM	0.4 nM	14 nM
